Data taken from US6844435B2, “Heterocyclic compounds useful as inhibitors of tyrosine kinases” (Boehringer Ingelheim Pharmaceuticals, Inc., priority 2000, dated 2005).

SMILES | melting point
CN1CCN(S(=O)(=O)c2cccc(-c3nc4ccc5nc(Nc6c(Cl)cccc6Cl)n(C)c5c4c(=O)[nH]3)c2)CC1 [Example 61] | 215 °C (dec.)
[H]/N=C(/N)c1cccc(/C=C(\C)c2nc3ccc4nc(Nc5c(Cl)cccc5Cl)n(C)c4c3c(=O)[nH]2)c1 [Example 92] | > 300 °C
Cn1c(Nc2c(Cl)cccc2Cl)nc2ccc3nc(Cc4ccccc4)[nH]c(=O)c3c21 [Example 34] | > 250 °C (dec.)
Cc1ncc(-c2nc3ccc4nc(Nc5c(Cl)cccc5Cl)n(C)c4c3c(=O)[nH]2)o1 [Example 46] | > 300 °C
CC(C)=Cc1nc2ccc3nc(Nc4c(Cl)cccc4Cl)n(C)c3c2c(=O)[nH]1 [Example 28] | > 300 °C
Cn1c(Nc2c(Cl)cccc2Cl)nc2ccc3nc(C4=CC5C=CC4N5C(=O)OCc4ccccc4)[nH]c(=O)c3c21 (stereo not drawn) | > 275 °C (dec.)
CCc1nc2ccc3nc(Nc4c(Cl)cccc4Cl)n(C)c3c2c(=O)[nH]1 [Example 53] | > 300 °C
CCNC(=O)Nc1cccc(-c2nc3ccc4nc(Nc5c(Cl)cccc5Cl)n(C)c4c3c(=O)[nH]2)c1 [Example 20] | 251 °C (dec.)
Cn1c(Nc2c(Cl)cccc2Cl)nc2ccc3nc(C4=CC(=O)CC4)[nH]c(=O)c3c21 [Example 81] | > 300 °C
CC(=O)C1CC=C(c2nc3ccc4nc(Nc5c(Cl)cccc5Cl)n(C)c4c3c(=O)[nH]2)C1 (stereo not drawn) [Example 72] | > 215 °C (dec.)
Cn1c(Nc2c(Cl)cccc2Cl)nc2ccc3nc(-c4ncc[nH]4)[nH]c(=O)c3c21 [Example 25] | > 300 °C
Cn1c(Nc2c(Cl)cccc2Cl)nc2ccc3nc(C4=CC(N5CCN(C(=O)OC(C)(C)C)CC5)CC4)[nH]c(=O)c3c21 (stereo not drawn) [Example 65] | 168 to 170 °C
C/C(=C\c1cc([N+](=O)[O-])cc([N+](=O)[O-])c1)c1nc2ccc3nc(Nc4c(Cl)cccc4Cl)n(C)c3c2c(=O)[nH]1 | 315 to 317 °C (dec.)
Cn1c(Nc2c(Cl)cccc2Cl)nc2ccc3nc(-c4cccc([N+](=O)[O-])c4)[nH]c(=O)c3c21 [Example 18] | > 300 °C
Cn1c(Nc2c(Cl)cccc2Cl)nc2ccc3nc(-c4csc([C@H]5CCCN5)n4)[nH]c(=O)c3c21 [Example 98] | 290 °C (dec.)
Cn1c(Nc2c(Cl)cccc2Cl)nc2ccc3nc(-c4cccc(N)c4)[nH]c(=O)c3c21 [Example 19] | 200 °C (dec.)
CCOC(=O)c1nc2ccc3nc(Nc4c(Cl)cccc4Cl)n(C)c3c2c(=O)[nH]1 [Example 37] | 275 to 277 °C
Cn1c(Nc2c(Cl)cccc2Cl)nc2ccc3nc(C(=O)O)[nH]c(=O)c3c21 [Example 42] | > 300 °C
Cn1c(Nc2c(Cl)cccc2Cl)nc2ccc3nc(-c4nc5ccccc5[nH]4)[nH]c(=O)c3c21 [Example 43] | > 300 °C
Cn1c(Nc2c(Cl)cccc2Cl)nc2ccc3nc(C(=O)N4CCCC4)[nH]c(=O)c3c21 [Example 52] | 295 °C (dec.)

SMILES | melting point
CN1c2ccc3nc(Nc4c(Cl)cccc4Cl)n(C)c3c2C(=O)NC1c1ccccc1 (stereo not drawn) [Example 88] | 228 to 230 °C
Cn1c(Nc2c(Cl)cccc2Cl)nc2ccc3nc(-c4ccc(S(=O)(=O)N5CCNCC5)cc4)[nH]c(=O)c3c21 [Example 100] | 246 °C
Cn1c(Nc2c(Cl)cccc2Cl)nc2ccc3nc(-c4scc(S(C)(=O)=O)c4Cl)[nH]c(=O)c3c21 [Example 23] | 280 °C
Cn1c(Nc2c(Cl)cccc2Cl)nc2ccc3nc(C4=CC5C=CC4N5)[nH]c(=O)c3c21 (stereo not drawn) | > 300 °C
Cn1c(Nc2c(Cl)cccc2Cl)nc2ccc3nc(-c4ccccc4)[nH]c(=O)c3c21 [Example 7, 2-(2,6-Dichlorophenylamino)-1-methyl-7-phenyl-1,8-dihydro-9H-imidazo[4,5-f]quinazoline-9-one] | > 300 °C
Cn1c(Nc2c(Cl)cccc2Cl)nc2ccc3nc(C(=O)c4ccccc4)[nH]c(=O)c3c21 [Example 60] | 280 °C (dec.)
Cn1c(Nc2c(Cl)cccc2Cl)nc2ccc3nc(CC4=CCCC4)[nH]c(=O)c3c21 [Example 40] | 258 °C (dec.)
Cn1c(Nc2c(Cl)cccc2Cl)nc2ccc3nc(-c4cccs4)[nH]c(=O)c3c21 [Example 22] | > 300 °C
CC(C)c1nc2ccc3nc(Nc4c(Cl)cccc4Cl)n(C)c3c2c(=O)[nH]1 [Example 49] | 279 °C (dec.)
Cn1c(Nc2c(Cl)cccc2Cl)nc2ccc3nc(C4=CC(N5CCNCC5)CC4)[nH]c(=O)c3c21 (stereo not drawn) [Example 48] | 173 to 174 °C
Cn1c(Nc2c(Cl)cccc2Cl)nc2ccc3nc(C(N)=O)[nH]c(=O)c3c21 [Example 27] | > 300 °C
Cn1c(Nc2c(Cl)cccc2Cl)nc2ccc3nc(-c4ccoc4)[nH]c(=O)c3c21 [Example 8, 2-(2,6-Dichlorophenylamino)-1-methyl-7-furan-3-yl-1,8-dihydro-9H-imidazo[4,5-f]quinazoline-9-one] | > 300 °C
CCCCCc1nc2ccc3nc(Nc4c(Cl)cccc4Cl)n(C)c3c2c(=O)[nH]1 [Example 64] | 257 to 260 °C
C=Cc1nc2ccc3nc(Nc4c(Cl)cccc4Cl)n(C)c3c2c(=O)[nH]1 [Example 21] | 278 to 284 °C (dec.)
Cn1c(Nc2c(Cl)cccc2Cl)nc2ccc3nc(C4=CC5CNCC5C4)[nH]c(=O)c3c21 (stereo not drawn) [Example 95] | 265 °C (dec.)
C/C(=C\c1cccc(CN)c1)c1nc2ccc3nc(Nc4c(Cl)cccc4Cl)n(C)c3c2c(=O)[nH]1 [Example 89] | 197 to 205 °C
C/C(=C\c1ccccc1[N+](=O)[O-])c1nc2ccc3nc(Nc4c(Cl)cccc4Cl)n(C)c3c2c(=O)[nH]1 [Example 71] | 290 to 292 °C
C/C(=C\c1cc(N/C(=N\C(=O)OC(C)(C)C)NC(=O)OC(C)(C)C)cc(N/C(=N\C(=O)OC(C)(C)C)NC(=O)OC(C)(C)C)c1)c1nc2ccc3nc(Nc4c(Cl)cccc4Cl)[nH]c3c2c(=O)[nH]1 [Example 103] | > 300 °C
C/C(=C\c1cccc(C#N)c1)c1nc2ccc3nc(Nc4c(Cl)cccc4Cl)n(C)c3c2c(=O)[nH]1 [Example 70] | 288 to 290 °C
